# Patent US20230111310A1, “CARBOXYLIC ACID DERIVATIVE-SUBSTITUTED IMINO ARYL COMPOUND, PREPARATION METHOD THEREFOR, HERBICIDAL COMPOSITION AND USE THEREOF” (Qingdao Kingagroot Chemical Compound Co., Ltd., priority 2020, published 2023)
# Key:
# Assay in all cases: Weeding effect in post-emergence stage
# Type in all cases: in vivo
# Echinochloa crusgalli = conditions: for Weeding effect in post-emergence stage, Echinochloa crusgalli: level of fresh weight growth control rate; for Weeding effect in post-emergence stage, Echinochloa crusgalli (level): fresh weight control rate level
# Summary of the method: (§1)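 Pot-grown greenhouse plants sprayed at 2–3 leaf stage, 2 weeks after sowing, with compound in acetone/Tween 80 plus methyl oleate emulsifiable concentrate (1.5 liter/ha) at 500–7.5 g/ha. Growth control rated 3 weeks after treatment; mean of three replicates.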
# Alopecurus japonicus = conditions: for Weeding effect in post-emergence stage, Alopecurus japonicus: level of fresh weight growth control rate; for Weeding effect in post-emergence stage, Alopecurus japonicus (level): fresh weight control rate level
# Summary of the method: as §1
# Setaria viridis = conditions: for Weeding effect in post-emergence stage, Setaria viridis: level of fresh weight growth control rate; for Weeding effect in post-emergence stage, Setaria viridis (level): fresh weight control rate level
# Summary of the method: as §1
# Eleusine indica = conditions: for Weeding effect in post-emergence stage, Eleusine indica: level of fresh weight growth control rate; for Weeding effect in post-emergence stage, Eleusine indica (level): fresh weight control rate level
# Summary of the method: as §1
# Abutilon theophrasti = conditions: for Weeding effect in post-emergence stage, Abutilon theophrasti: level of fresh weight growth control rate; for Weeding effect in post-emergence stage, Abutilon theophrasti (level): fresh weight control rate level
# Summary of the method: as §1
# Digitaria sanguinalis = conditions: for Weeding effect in post-emergence stage, Digitaria sanguinalis: level of fresh weight growth control rate; for Weeding effect in post-emergence stage, Digitaria sanguinalis (level): fresh weight control rate level
# Summary of the method: as §1
SMILES,"Weeding effect in post-emergence stage, Echinochloa crusgalli (Echinochloa crusgalli; Dose 15 g/ha)","Weeding effect in post-emergence stage, Alopecurus japonicus (Alopecurus japonicus; Dose 15 g/ha)","Weeding effect in post-emergence stage, Setaria viridis (Setaria viridis; Dose 15 g/ha)","Weeding effect in post-emergence stage, Eleusine indica (Eleusine indica; Dose 15 g/ha)","Weeding effect in post-emergence stage, Abutilon theophrasti (Abutilon theophrasti; Dose 15 g/ha)","Weeding effect in post-emergence stage, Digitaria sanguinalis (Digitaria sanguinalis; Dose 15 g/ha)",also measured
CCOC(=O)C(C)O/N=C/c1cc(-n2c(=O)n(C)c(=S)n(C)c2=O)c(F)cc1C#N (racemic) [Compound 88],5 (Level 5: growth control rate is above 85%),5 (Level 5: growth control rate is above 85%),5 (Level 5: growth control rate is above 85%),5 (Level 5: growth control rate is above 85%),5 (Level 5: growth control rate is above 85%),5 (Level 5: growth control rate is above 85%),–
CCO/C(C)=N/OC(=O)C(C)O/N=C/c1cc(-n2c(=O)cc(C(F)(F)F)n(C)c2=O)c(F)cc1Cl (stereo not drawn) [Compound 252],5 (Level 5: growth control rate is above 85%),5 (Level 5: growth control rate is above 85%),5 (Level 5: growth control rate is above 85%),5 (Level 5: growth control rate is above 85%),5 (Level 5: growth control rate is above 85%),5 (Level 5: growth control rate is above 85%),–
CCOC(=O)C(O/N=C/c1cc(-n2c(=O)n(C)c(=S)n(C)c2=O)c(F)cc1Cl)C1CC1 (stereo not drawn) [Compound 76],5 (Level 5: growth control rate is above 85%),5 (Level 5: growth control rate is above 85%),5 (Level 5: growth control rate is above 85%),5 (Level 5: growth control rate is above 85%),5 (Level 5: growth control rate is above 85%),5 (Level 5: growth control rate is above 85%),–
CC(O/N=C/c1cc(-n2c(=O)cc(C(F)(F)F)n(C)c2=O)c(F)cc1Cl)C(=O)OCc1ccccc1F (stereo not drawn) [Compound 284],5 (Level 5: growth control rate is above 85%),5 (Level 5: growth control rate is above 85%),5 (Level 5: growth control rate is above 85%),5 (Level 5: growth control rate is above 85%),5 (Level 5: growth control rate is above 85%),5 (Level 5: growth control rate is above 85%),–
COC(=O)[C@@H](C)O/N=C/c1cc(-n2c(=S)cc(C(F)(F)F)n(C)c2=O)c(F)cc1Br [388(R)],–,–,–,–,–,–,"Weeding effect in post-emergence stage, Echinochloa crusgalli (level) (Echinochloa crusgalli; Dose 15 g/ha): 5 (Level 5: growth control rate is above 85%); Weeding effect in post-emergence stage, Alopecurus japonicus (level) (Alopecurus japonicus; Dose 15 g/ha): 5 (Level 5: growth control rate is above 85%); Weeding effect in post-emergence stage, Setaria viridis (level) (Setaria viridis; Dose 15 g/ha): 5 (Level 5: growth control rate is above 85%); Weeding effect in post-emergence stage, Eleusine indica (level) (Eleusine indica; Dose 15 g/ha): 5 (Level 5: growth control rate is above 85%); Weeding effect in post-emergence stage, Abutilon theophrasti (level) (Abutilon theophrasti; Dose 15 g/ha): 5 (Level 5: growth control rate is above 85%); Weeding effect in post-emergence stage, Digitaria sanguinalis (level) (Digitaria sanguinalis; Dose 15 g/ha): 5 (Level 5: growth control rate is above 85%)"
C[C@@H](O/N=C/c1cc(-n2c(=O)cc(C(F)(F)F)n(C)c2=O)c(F)cc1Cl)C(=O)SCc1ccccc1 [409(R)],–,–,–,–,–,–,"Weeding effect in post-emergence stage, Echinochloa crusgalli (level) (Echinochloa crusgalli; Dose 30 g/ha): 5 (Level 5: growth control rate is above 85%); Weeding effect in post-emergence stage, Alopecurus japonicus (level) (Alopecurus japonicus; Dose 30 g/ha): 5 (Level 5: growth control rate is above 85%); Weeding effect in post-emergence stage, Setaria viridis (level) (Setaria viridis; Dose 30 g/ha): 5 (Level 5: growth control rate is above 85%); Weeding effect in post-emergence stage, Eleusine indica (level) (Eleusine indica; Dose 30 g/ha): 5 (Level 5: growth control rate is above 85%); Weeding effect in post-emergence stage, Abutilon theophrasti (level) (Abutilon theophrasti; Dose 30 g/ha): 5 (Level 5: growth control rate is above 85%); Weeding effect in post-emergence stage, Digitaria sanguinalis (level) (Digitaria sanguinalis; Dose 30 g/ha): 5 (Level 5: growth control rate is above 85%)"
COC(=O)[C@@H](C)O/N=C/c1cc(-n2c(=S)cc(C(F)(F)F)n(C)c2=S)c(F)cc1C#N [390(R)],–,–,–,–,–,–,"Weeding effect in post-emergence stage, Echinochloa crusgalli (level) (Echinochloa crusgalli; Dose 15 g/ha): 5 (Level 5: growth control rate is above 85%); Weeding effect in post-emergence stage, Alopecurus japonicus (level) (Alopecurus japonicus; Dose 15 g/ha): 5 (Level 5: growth control rate is above 85%); Weeding effect in post-emergence stage, Setaria viridis (level) (Setaria viridis; Dose 15 g/ha): 5 (Level 5: growth control rate is above 85%); Weeding effect in post-emergence stage, Eleusine indica (level) (Eleusine indica; Dose 15 g/ha): 5 (Level 5: growth control rate is above 85%); Weeding effect in post-emergence stage, Abutilon theophrasti (level) (Abutilon theophrasti; Dose 15 g/ha): 5 (Level 5: growth control rate is above 85%); Weeding effect in post-emergence stage, Digitaria sanguinalis (level) (Digitaria sanguinalis; Dose 15 g/ha): 5 (Level 5: growth control rate is above 85%)"
CC(O/N=C/c1cc(-n2c(=O)cc(C(F)(F)F)n(C)c2=O)c(F)cc1Cl)C(=O)SCc1ccccc1 (stereo not drawn) [Compound 409],–,–,–,–,–,–,"Weeding effect in post-emergence stage, Echinochloa crusgalli (level) (Echinochloa crusgalli; Dose 30 g/ha): 5 (Level 5: growth control rate is above 85%); Weeding effect in post-emergence stage, Alopecurus japonicus (level) (Alopecurus japonicus; Dose 30 g/ha): 5 (Level 5: growth control rate is above 85%); Weeding effect in post-emergence stage, Setaria viridis (level) (Setaria viridis; Dose 30 g/ha): 5 (Level 5: growth control rate is above 85%); Weeding effect in post-emergence stage, Eleusine indica (level) (Eleusine indica; Dose 30 g/ha): 5 (Level 5: growth control rate is above 85%); Weeding effect in post-emergence stage, Abutilon theophrasti (level) (Abutilon theophrasti; Dose 30 g/ha): 5 (Level 5: growth control rate is above 85%); Weeding effect in post-emergence stage, Digitaria sanguinalis (level) (Digitaria sanguinalis; Dose 30 g/ha): 5 (Level 5: growth control rate is above 85%)"
